The experiment concerns the target GABAA receptor (TBPS binding site), rat brain cortical membranes. Description: [35S]-TBPS binding assay, rat brain cortical membranes in the presence of 5 mM GABA. As to conditions: inhibition of 3 nM [35S]-TBPS binding. The procedure:
[^35S]-t-Butylbicyclophosphorothionate (TBPS) binding assays using rat brain cortical membranes in the presence of 5 mM GABA has been described (Gee et al, J. Pharmacol. Exp. Ther. 1987, 241, 346-353; Hawkinson et al, Mol. Pharmacol. 1994, 46, 977-985; Lewin, A. H et al., Mol. Pharmacol. 1989, 35, 189-194).
Briefly, cortices are rapidly removed following decapitation of carbon dioxide-anesthetized Sprague-Dawley rats (200-250 g). The cortices are homogenized in 10 volumes of ice-cold 0.32 M sucrose using a glass/teflon homogenizer and centrifuged at 1500×g for 10 min at 4° C. The resultant supernatants are centrifuged at 10,000×g for 20 min at 4° C. to obtain the P2 pellets. The P2 pellets are resuspended in 200 mM NaCl/50 mM Na—K phosphate pH 7.4 buffer and centrifuged at 10,000×g for 10 min at 4° C. This washing procedure is repeated twice and the pellets are resuspended in 10 volumes of buffer. Aliquots ([…]) of the membrane suspensions are incubated with 3 nM [^35S]-TBPS and […] aliquots of test drug dissolved in dimethyl sulfoxide (DMSO) (final 0.5%) in the presence of 5 mM GABA. The incubation is brought to a final volume of 1.0 mL with buffer. Nonspecific binding is determined in the presence of […] and ranged from 15 to 25%. Following a 90 min incubation at room temp, the assays are terminated by filtration through glass fiber filters (Schleicher and Schuell No. 32) using a cell harvester (Brandel) and rinsed three times with ice-cold buffer. Filter bound radioactivity is measured by liquid scintillation spectrometry. Non-linear curve fitting of the overall data for each drug averaged for each concentration is done using Prism (GraphPad). […] The concentration of test compound producing 50% inhibition (IC50) of specific binding and the maximal extent of inhibition (Imax) are determined for the individual experiments with the same model used for the overall data and then the means±SEM.s of the individual experiments are calculated.
Various compounds are or can be screened to determine their potential as modulators of [^35S]-TBPS binding in vitro. These assays are or can be performed in accordance with the above
Turning to `CCOC[C@@]1(O)CC[C@H]2[C@H](CC[C@@H]3[C@@H]2CC[C@]2(C)[C@@H](C(=O)Nc4ccncc4)CC[C@@H]32)C1` [Example 1, (3R,5R,8R,9R,10S,13S,14S,17S)-3-(ethoxymethyl)-3-hydroxy-13-methyl-N-(pyridin-4-yl)hexadecahydro-1H-cyclopenta[a]phenanthrene-17-carboxamide], the IC50 was below 0.1 µM. The result for `CCOC[C@@]1(O)CC[C@H]2[C@H](CC[C@@H]3[C@@H]2CC[C@]2(C)[C@@H](C(=O)Nc4ncccc4C)CC[C@@H]32)C1` [Example 2, (3R,5R,8R,9R,10S,13S,14S,17S)-3-(ethoxymethyl)-3-hydroxy-13-methyl-N-(3-methylpyridin-2-yl)hexadecahydro-1H-cyclopenta[a]phenanthrene-17-carboxamide] reads above 1 µM; that for `CCOC[C@@]1(O)CC[C@H]2[C@H](CC[C@@H]3[C@@H]2CC[C@]2(C)[C@@H](C(=O)Nc4ncccc4C(F)(F)F)CC[C@@H]32)C1` [Example 3, (3R,5R,8R,9R,10S,13S,14S,17S)-3-(ethoxymethyl)-3-hydroxy-13-methyl-N-(3-(trifluoromethyl)pyridin-2-yl)hexadecahydro-1H-cyclopenta[a]phenanthrene-17-carboxamide], 0.1 to 1 µM; that for `CCOC[C@@]1(O)CC[C@H]2[C@H](CC[C@@H]3[C@@H]2CC[C@]2(C)[C@@H](C(=O)Nc4cccc(C)n4)CC[C@@H]32)C1` [Example 4, (3R,5R,8R,9R,10S,13S,14S,17S)-3-(ethoxymethyl)-3-hydroxy-13-methyl-N-(6-methylpyridin-2-yl)hexadecahydro-1H-cyclopenta[a]phenanthrene-17-carboxamide], below 0.1 µM. As for `COC[C@@]1(O)CC[C@@]2(C)[C@@H](CC[C@@H]3[C@@H]2CC[C@]2(C)[C@@H](C(=O)Nc4cccc(C)n4)CC[C@@H]32)C1` [Example 5, (3R,5S,8R,9S,10S,13S,14S,17S)-3-hydroxy-3-(methoxymethyl)-10,13-dimethyl-N-(6-methylpyridin-2-yl)hexadecahydro-1H-cyclopenta[a]phenanthrene-17-carboxamide], the concentration for half-maximal inhibition (IC50) was below 0.1 µM. In the case of `Cc1nc2ccccn2c1NC(=O)[C@H]1CC[C@H]2[C@@H]3CC[C@@H]4C[C@](C)(O)CC[C@@H]4[C@H]3CC[C@]12C` [Example 6, (3R,5R,8R,9R,10S,13S,14S,17S)-3-hydroxy-3,13-dimethyl-N-(2-methylimidazo[1,2-a]pyridin-3-yl)hexadecahydro-1H-cyclopenta[a]phenanthrene-17-carboxamide], the 50% inhibitory concentration (IC50) lay in the range of 0.1 to 1 µM. Under `COC[C@@]1(O)CC[C@H]2[C@@H](CC[C@@H]3[C@@H]2CC[C@]2(C)[C@@H](C(=O)Nc4cccc(C)n4)CC[C@@H]32)C1` [Example 7, (3R,5S,8R,9R,10S,13S,14S,17S)-3-hydroxy-3-(methoxymethyl)-13-methyl-N-(6-methylpyridin-2-yl)hexadecahydro-1H-cyclopenta[a]phenanthrene-17-carboxamide] stands below 0.1 µM; under `CCOC[C@@]1(O)CC[C@@]2(CC)[C@H](CC[C@H]3[C@@H]4CC[C@H](C(=O)Nc5cc(C)nn5C)[C@@]4(C)CC[C@@H]32)C1` [Example 8, (3R,5R,8S,9S,10S,13S,14S,17S)-N-(1,3-dimethyl-1H-pyrazol-5-yl)-3-(ethoxymethyl)-10-ethyl-3-hydroxy-13-methylhexadecahydro-1H-cyclopenta[a]phenanthrene-17-carboxamide], below 0.1 µM.

Take `CCOC[C@@]1(O)CC[C@@]2(COC(C)C)[C@H](CC[C@H]3[C@@H]4CC[C@H](C(=O)Nc5ccc(C#N)cn5)[C@@]4(C)CC[C@@H]32)C1` [Example 9, (3R,5R,8S,9S,10R,13S,14S,17S)-N-(5-cyanopyridin-2-yl)-3-(ethoxymethyl)-3-hydroxy-10-(isopropoxymethyl)-13-methylhexadecahydro-1H-cyclopenta[a]phenanthrene-17-carboxamide]: the IC50 was below 0.1 µM. Under `COC[C@@]1(O)CC[C@H]2[C@H](CC[C@@H]3[C@@H]2CC[C@]2(C)[C@@H](C(=O)Nc4ccc(F)cn4)CC[C@@H]32)C1` [Example 10, (3R,5R,8R,9R,10S,13S,14S,17S)-N-(5-fluoropyridin-2-yl)-3-hydroxy-3-(methoxymethyl)-13-methylhexadecahydro-1H-cyclopenta[a]phenanthrene-17-carboxamide] stands below 0.1 µM; under `CCOC[C@@]1(O)CC[C@@]2(CC)[C@H](CC[C@H]3[C@@H]4CC[C@H](C(=O)Nc5cnc(C#N)cn5)[C@@]4(C)CC[C@@H]32)C1` [Example 11, (3R,5R,8S,9S,10S,13S,14S,17S)-N-(5-cyanopyrazin-2-yl)-3-(ethoxymethyl)-10-ethyl-3-hydroxy-13-methylhexadecahydro-1H-cyclopenta[a]phenanthrene-17-carboxamide], below 0.1 µM; under `CCOC[C@@]1(O)CC[C@@]2(CC)[C@@H](CC[C@H]3[C@@H]4CC[C@H](C(=O)Nc5ccc(C#N)cn5)[C@@]4(C)CC[C@@H]32)C1` [Example 12, (3R,5S,8S,9S,10S,13S,14S,17S)-N-(5-cyanopyridin-2-yl)-3-(ethoxymethyl)-10-ethyl-3-hydroxy-13-methylhexadecahydro-1H-cyclopenta[a]phenanthrene-17-carboxamide], below 0.1 µM.

On to `Cc1nc2n(c1NC(=O)[C@H]1CC[C@H]3[C@@H]4CC[C@@H]5C[C@](C)(O)CC[C@@H]5[C@H]4CC[C@]13C)CCCC2` [Example 13, (3R,5R,8R,9R,10S,13S,14S,17S)-3-hydroxy-3,13-dimethyl-N-(2-methyl-5,6,7,8-tetrahydroimidazo[1,2-a]pyridin-3-yl)hexadecahydro-1H-cyclopenta[a]phenanthrene-17-carboxamide], for which the half-maximal inhibitory concentration (IC50) is 0.1 to 1 µM. Under `C[C@]12CC[C@H]3[C@@H](CC[C@@H]4C[C@H](O)CC[C@@H]43)[C@@H]1CC[C@@H]2C(=O)Nc1cnc(C#N)cn1` [Example 14, (3R,5R,8R,9R,10S,13S,14S,17S)-N-(5-cyanopyrazin-2-yl)-3-hydroxy-13-methylhexadecahydro-1H-cyclopenta[a]phenanthrene-17-carboxamide] stands below 0.1 µM; under `CC[C@@]1(O)CC[C@@]2(C)[C@H](CC[C@@H]3[C@@H]2CC[C@]2(C)[C@@H](C(=O)Nc4nc(C)ccc4Cl)CC[C@@H]32)C1` [Example 15, (3R,5R,8R,9S,10S,13S,14S,17S)-N-(3-chloro-6-methylpyridin-2-yl)-3-ethyl-3-hydroxy-10,13-dimethylhexadecahydro-1H-cyclopenta[a]phenanthrene-17-carboxamide], 0.1 to 1 µM; under `CC[C@@]1(O)CC[C@H]2[C@H](CC[C@@H]3[C@@H]2CC[C@]2(C)[C@@H](C(=O)Nc4nc(C)ccc4Cl)CC[C@@H]32)C1` [Example 16, (3R,5R,8R,9R,10S,13S,14S,17S)-N-(3-chloro-6-methylpyridin-2-yl)-3-ethyl-3-hydroxy-13-methylhexadecahydro-1H-cyclopenta[a]phenanthrene-17-carboxamide], 0.1 to 1 µM. As to `CCOC[C@@]1(O)CC[C@H]2[C@H](CC[C@@H]3[C@@H]2CC[C@]2(C)[C@@H](C(=O)Nc4ccccn4)CC[C@@H]32)C1` [Example 20], the IC50 was below 0.1 µM. The result for `CCOC[C@@]1(O)CC[C@H]2[C@H](CC[C@@H]3[C@@H]2CC[C@]2(C)[C@@H](C(=O)Nc4cccnc4)CC[C@@H]32)C1` [Example 21] reads 0.1 to 1 µM; that for `CCOC[C@@]1(O)CC[C@H]2[C@H](CC[C@@H]3[C@@H]2CC[C@]2(C)[C@@H](C(=O)Nc4ccc(C#N)cn4)CC[C@@H]32)C1` [Example 22], below 0.1 µM. Under `CCOC[C@@]1(O)CC[C@H]2[C@H](CC[C@@H]3[C@@H]2CC[C@]2(C)[C@@H](C(=O)Nc4ncc(C#N)cc4C)CC[C@@H]32)C1` [Example 23] stands 0.1 to 1 µM. The result for `CCOC[C@@]1(O)CC[C@H]2[C@H](CC[C@@H]3[C@@H]2CC[C@]2(C)[C@@H](C(=O)Nc4cncc(C)n4)CC[C@@H]32)C1` [Example 24] reads below 0.1 µM; that for `CCOC[C@@]1(O)CC[C@H]2[C@H](CC[C@@H]3[C@@H]2CC[C@]2(C)[C@@H](C(=O)Nc4cnc(C)cn4)CC[C@@H]32)C1` [Example 25], below 0.1 µM; that for `CCOC[C@@]1(O)CC[C@H]2[C@H](CC[C@@H]3[C@@H]2CC[C@]2(C)[C@@H](C(=O)Nc4ncc(C#N)cc4Cl)CC[C@@H]32)C1` [Example 26], below 0.1 µM.

The values are drawn from patent US20220372067A1, “3.ALPHA.-HYDROXY-17.BETA.-AMIDE NEUROACTIVE STEROIDS AND COMPOSITIONS THEREOF” (SAGE THERAPEUTICS, INC., priority 2018, published 2022).
